The values below come from ChEMBL document CHEMBL3045164, “Combination of flavopiridol and embelin effectively inhibit cell growth in hepatocellular carcinoma depending on regulatory relationship between CDK6 and XIAP” (Med Chem Res, 2012).

Active and inactive are the calls of the source. No cut-off for these calls is given here.

For experiment [1], the species on record is Homo sapiens. The experiment can be described thus: Cytotoxicity against Homo sapiens (human) HepG2(2.2.1) cells assessed as growth inhibition at 15 uM after 24 to 72 hr by WST-8 assay. The experiment is classed as functional, cell-based. (In general: Formazan colour is commonly taken as a measure of viable cells.)
Experiment [2] is filed under the species Homo sapiens. The experiment can be described thus: Cytotoxicity against Homo sapiens (human) HepG2(2.2.1) cells assessed as growth inhibition at 20 uM after 24 to 72 hr by WST-8 assay. The experiment is classed as functional, cell-based.
For experiment [3], the species on record is Homo sapiens. The experiment can be described thus: Cytotoxicity against Homo sapiens (human) HepG2(2.2.1) cells assessed as growth inhibition at 10 uM after 24 to 72 hr by WST-8 assay. The experiment is classed as functional, cell-based.
Experiment [4] is described as follows: Cell cycle arrest in Homo sapiens (human) HepG2(2.2.1) cells assessed as accumulation at G2 phase at 300 nM after 24 hr by propidium iodide staining-based flow cytometric analysis (reference value: 24.38 +/- 2.02 %). The experiment is classed as functional.
For experiment [5], the species on record is Homo sapiens. The experiment can be described thus: Cytotoxicity against Homo sapiens (human) HepG2(2.2.1) cells assessed as growth inhibition at 100 nM after 24 to 72 hr by WST-8 assay in presence of 75 uM XIAP inhibitor embelin. The experiment is classed as functional, cell-based.
For experiment [6], the target named is G1/S-specific cyclin-D1 (Homo sapiens) (UniProt P24385). The experiment can be described thus: Inhibition of cyclin D1 in Homo sapiens (human) HepG2(2.2.1) cells assessed as downregulation of XIAP expression at 500 nM after 24 hr by Western blot analysis.
Chain of G1/S-specific cyclin-D1 (Homo sapiens) (P24385 whole entry): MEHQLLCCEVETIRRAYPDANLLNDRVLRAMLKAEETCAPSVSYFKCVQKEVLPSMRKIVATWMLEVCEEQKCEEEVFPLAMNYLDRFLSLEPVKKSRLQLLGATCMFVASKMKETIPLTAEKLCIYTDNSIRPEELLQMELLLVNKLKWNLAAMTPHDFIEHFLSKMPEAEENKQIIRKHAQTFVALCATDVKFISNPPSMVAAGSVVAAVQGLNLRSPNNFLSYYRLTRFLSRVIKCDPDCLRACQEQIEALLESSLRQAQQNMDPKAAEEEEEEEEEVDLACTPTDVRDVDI
The species named for experiment [7] is Homo sapiens. The experiment can be described thus: (§1) Cytotoxicity against Homo sapiens (human) HepG2(2.2.1) cells assessed as growth inhibition after 24 to 72 hr by WST-8 assay. The experiment is classed as functional, cell-based.
A short description of experiment [8]: as §1. The experiment is classed as functional, cell-based.
Experiment [9] is described as follows: Cell cycle arrest in Homo sapiens (human) HepG2(2.2.1) cells assessed as accumulation at G2 phase at 500 nM after 24 hr by propidium iodide staining-based flow cytometric analysis (reference value: 24.38 +/- 2.02 %). The experiment is classed as functional.
Experiment [10] is described as follows: Cell cycle arrest in Homo sapiens (human) HepG2(2.2.1) cells assessed as accumulation at S phase at 500 nM after 24 hr by propidium iodide staining-based flow cytometric analysis (reference value: 22.55 +/- 2.98 %). The experiment is classed as functional.
Experiment [11] is described as follows: Cell cycle arrest in Homo sapiens (human) HepG2(2.2.1) cells assessed as accumulation at G2 phase at 100 nM after 24 hr by propidium iodide staining-based flow cytometric analysis (reference value: 24.38 +/- 2.02 %). The experiment is classed as functional. For orientation: Flow cytometry measures light scatter and fluorescence of single cells or particles in a stream.

A short description of experiment [12]: Cell cycle arrest in Homo sapiens (human) HepG2(2.2.1) cells assessed as accumulation at G1 phase at 500 nM after 24 hr by propidium iodide staining-based flow cytometric analysis (reference value: 53.07 +/- 3.01 %). The experiment is classed as functional.
Experiment [13] deals with Cyclin-dependent kinase 4 (Homo sapiens) (UniProt P11802). The experiment can be described thus: Inhibition of CDK4 in Homo sapiens (human) HepG2(2.2.1) cells assessed as downregulation of XIAP expression at 500 nM after 24 hr by Western blot analysis. (In general: In western blotting, separated proteins are transferred to a membrane and probed.)
Chain of Cyclin-dependent kinase 4 (Homo sapiens) (P11802 whole entry): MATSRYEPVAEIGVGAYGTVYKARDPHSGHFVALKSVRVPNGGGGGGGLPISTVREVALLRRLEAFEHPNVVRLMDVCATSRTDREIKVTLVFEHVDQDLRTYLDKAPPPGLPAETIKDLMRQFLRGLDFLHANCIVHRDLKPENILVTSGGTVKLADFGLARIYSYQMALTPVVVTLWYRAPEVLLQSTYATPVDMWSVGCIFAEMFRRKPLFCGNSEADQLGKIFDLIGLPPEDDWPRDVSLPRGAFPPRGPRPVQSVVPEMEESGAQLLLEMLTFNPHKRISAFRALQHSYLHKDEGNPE
Experiment [14] is described as follows: Downregulation of CDK1 expression in Homo sapiens (human) HepG2(2.2.1) cells at 500 nM after 24 hr by Western blot analysis. The experiment is classed as functional.
Experiment [15] in a line: Cell cycle arrest in Homo sapiens (human) HepG2(2.2.1) cells assessed as accumulation at G1 phase at 100 nM after 24 hr by propidium iodide staining-based flow cytometric analysis (reference value: 53.07 +/- 3.01 %). The experiment is classed as functional.
Experiment [16] in a line: Downregulation of cyclin D1 expression in Homo sapiens (human) HepG2(2.2.1) cells at 500 nM after 24 hr by Western blot analysis. The experiment is classed as functional.
Experiment [17] is filed under the species Homo sapiens. The experiment can be described thus: Cytotoxicity against Homo sapiens (human) HepG2(2.2.1) cells assessed as growth inhibition at 75 nM after 24 to 72 hr by WST-8 assay in presence of 15 uM XIAP inhibitor embelin. The experiment is classed as functional, cell-based.
Experiment [18] is described as follows: Downregulation of XIAP expression in Homo sapiens (human) HepG2(2.2.1) cells at 500 nM after 24 hr by Western blot analysis. The experiment is classed as functional.
Experiment [19] is filed under the species Homo sapiens. The experiment is described as follows: Cytotoxicity against Homo sapiens (human) HepG2(2.2.1) cells assessed as growth inhibition at 50 nM after 24 to 72 hr by WST-8 assay in presence of 10 uM XIAP inhibitor embelin. The experiment is classed as functional, cell-based.
Experiment [20] has as its target Cyclin-dependent kinase 6 (Homo sapiens) (UniProt Q00534). The experiment can be described thus: Inhibition of CDK6 in Homo sapiens (human) HepG2(2.2.1) cells assessed as downregulation of XIAP expression at 500 nM after 24 hr by Western blot analysis.
Experiment [21] can be described thus: Downregulation of CDK6 expression in Homo sapiens (human) HepG2(2.2.1) cells at 500 nM after 24 hr by Western blot analysis. The experiment is classed as functional.
The nature of experiment [22]: Downregulation of CDK2 expression in Homo sapiens (human) HepG2(2.2.1) cells at 500 nM after 24 hr by Western blot analysis. The experiment is classed as functional.
Experiment [23] is described as follows: Downregulation of XIAP expression in Homo sapiens (human) HepG2(2.2.1) cells after 24 hr by Western blot analysis. The experiment is classed as functional.
The nature of experiment [24]: Downregulation of CDK4 expression in Homo sapiens (human) HepG2(2.2.1) cells at 500 nM after 24 hr by Western blot analysis. The experiment is classed as functional.
The species named for experiment [25] is Homo sapiens. The experiment is described as follows: Cytotoxicity against Homo sapiens (human) HepG2(2.2.1) cells assessed as growth inhibition at 100 nM after 24 to 72 hr by WST-8 assay. The experiment is classed as functional, cell-based.
Experiment [26] is filed under the species Homo sapiens. The experiment is described as follows: Cytotoxicity against Homo sapiens (human) HepG2(2.2.1) cells assessed as growth inhibition at 50 nM after 24 to 72 hr by WST-8 assay. The experiment is classed as functional, cell-based.
For experiment [27], the species on record is Homo sapiens. The experiment can be described thus: Cytotoxicity against Homo sapiens (human) HepG2(2.2.1) cells assessed as growth inhibition at 75 nM after 24 to 72 hr by WST-8 assay. The experiment is classed as functional, cell-based.
A short description of experiment [28]: Cell cycle arrest in Homo sapiens (human) HepG2(2.2.1) cells assessed as accumulation at S phase at 100 nM after 24 hr by propidium iodide staining-based flow cytometric analysis (reference value: 22.55 +/- 2.98 %). The experiment is classed as functional.
Experiment [29] can be described thus: Cell cycle arrest in Homo sapiens (human) HepG2(2.2.1) cells assessed as accumulation at G1 phase at 300 nM after 24 hr by propidium iodide staining-based flow cytometric analysis (reference value: 53.07 +/- 3.01 %). The experiment is classed as functional.
A short description of experiment [30]: Cell cycle arrest in Homo sapiens (human) HepG2(2.2.1) cells assessed as accumulation at S phase at 300 nM after 24 hr by propidium iodide staining-based flow cytometric analysis (reference value: 22.55 +/- 2.98 %). The experiment is classed as functional.
A short description of experiment [31]: Induction of apoptosis in Homo sapiens (human) HepG2(2.2.1) cells at 500 nM after 24 hr by annexin V-FITC/propidium iodide staining-based flow cytometric analysis (reference value: 2.20%). The experiment is classed as functional.

What is called IC50 is the midpoint of a concentration-inhibition curve.

Chain of Cyclin-dependent kinase 6 (Homo sapiens) (Q00534 whole entry): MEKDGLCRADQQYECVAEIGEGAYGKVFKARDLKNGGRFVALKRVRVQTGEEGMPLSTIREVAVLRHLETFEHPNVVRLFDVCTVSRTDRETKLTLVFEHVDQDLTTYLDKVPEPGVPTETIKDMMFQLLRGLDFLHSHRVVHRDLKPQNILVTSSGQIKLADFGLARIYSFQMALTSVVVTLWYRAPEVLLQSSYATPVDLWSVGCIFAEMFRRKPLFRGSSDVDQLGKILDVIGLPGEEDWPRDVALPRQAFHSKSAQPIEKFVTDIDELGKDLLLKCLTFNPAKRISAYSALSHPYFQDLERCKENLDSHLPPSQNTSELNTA

On to `CCCCCCCCCCCC1=C(O)C(=O)C=C(O)C1=O`, for which the “growth inhibition (GI)” value in the experiment listed under Homo sapiens [1], in the experiment filed under Homo sapiens [2] and in the experiment filed under Homo sapiens [3] was “Active” throughout.
On to `CN1CC[C@H](c2c(O)cc(O)c3c(=O)cc(-c4ccccc4Cl)oc23)[C@H](O)C1` [ALVOCIDIB], for which the Activity was found to be 15.7% in [4]; 20.9% in [9]; 21.2% in [10]; 23.2% in [11]; 57.9% in [12]; 54.6% in experiment [15]. For the same molecule, the Activity entry was “Dose-dependent effect” in experiment [23]; 22.2% in [28]; 56.4% in experiment [29]; 27.9% in experiment [30]; 14.28% in experiment [31]. The “growth inhibition (GI)” value in the experiment filed under Homo sapiens [5], in the experiment listed under Homo sapiens [17], in the experiment listed under Homo sapiens [19], in the experiment listed under Homo sapiens [25], in the experiment listed under Homo sapiens [26] and in the experiment listed under Homo sapiens [27] was “Active” each time. Further, the inhibition result in [6], in experiment [13] and in [20] was “Active” each time. Further, the “growth inhibition (GI)” value in the experiment listed under Homo sapiens [7] was “Dose-dependent effect”. For the same molecule, in experiment [8], the IC50 was found to be 200 nM. The result in [14] and in [22] was inactive. Moreover, the result in experiment [16], in [18], in [21] and in experiment [24] was Active.
